pIC50: −log10 of the molar value. Where a name gives a salt, the structure may show the parent alone.

Usually pIC50 stands for the negative decadic logarithm of the IC50, by convention in mol/L.

HPK1, sequence (Q92918 whole entry): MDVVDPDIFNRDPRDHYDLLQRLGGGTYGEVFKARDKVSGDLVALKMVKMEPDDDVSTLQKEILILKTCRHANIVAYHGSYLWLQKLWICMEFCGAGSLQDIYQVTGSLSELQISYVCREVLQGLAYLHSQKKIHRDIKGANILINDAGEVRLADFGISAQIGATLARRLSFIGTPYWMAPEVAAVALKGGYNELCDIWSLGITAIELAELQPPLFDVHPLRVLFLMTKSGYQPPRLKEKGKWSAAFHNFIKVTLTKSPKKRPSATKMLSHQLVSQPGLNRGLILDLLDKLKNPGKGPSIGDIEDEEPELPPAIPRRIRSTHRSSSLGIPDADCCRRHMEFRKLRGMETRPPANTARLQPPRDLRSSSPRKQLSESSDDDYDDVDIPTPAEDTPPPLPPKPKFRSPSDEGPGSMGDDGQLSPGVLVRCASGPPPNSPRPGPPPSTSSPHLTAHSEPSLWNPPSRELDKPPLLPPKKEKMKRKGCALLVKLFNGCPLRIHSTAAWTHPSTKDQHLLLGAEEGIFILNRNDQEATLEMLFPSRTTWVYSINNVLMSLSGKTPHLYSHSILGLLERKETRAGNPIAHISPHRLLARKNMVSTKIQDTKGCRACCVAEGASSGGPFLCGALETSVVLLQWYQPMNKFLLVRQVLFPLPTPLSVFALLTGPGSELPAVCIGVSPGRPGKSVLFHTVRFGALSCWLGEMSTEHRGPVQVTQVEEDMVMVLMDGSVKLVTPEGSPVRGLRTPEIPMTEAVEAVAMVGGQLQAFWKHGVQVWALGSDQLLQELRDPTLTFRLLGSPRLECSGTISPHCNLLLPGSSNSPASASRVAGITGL

For this test, the target named is HPK1 (Homo sapiens (Human), UniProt Q92918). In words: HPK1 biochemical enzyme assay (microfluidic mobility shift assay). The following applies: 1.5 nM HPK1, ATP 1 mM final, 30 min preincubation, 60 min at RT, Caliper EZ Reader; read-out: HPK1 1000UMATP caliper IC50. The procedure, abridged:
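Ten-point compound titrations (top 3 μM final) preincubated 30 min with HPK1 and substrate, then reaction started with 1 mM ATP and 1 μM substrate, 5 mM MgCl2. After 60 min at RT, reaction terminated and product measured by microfluidic mobility shift.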
For the compound `O=C1NCc2c(-c3cnc4cc(F)ccn34)ccc(Nc3ccc(N4CCC[C@@H](O)C4)cn3)c21` [I-174, 4-(7-fluoroimidazo [1,2-a]pyridin-3-yl)-7-[[5-[(3R)-3-hydroxy-1-piperipyl]-2-pyripyl]amino] isoindolin-1-one], the pIC50 was more than 7.00.

Regarding `CN(Cc1nc(Nc2ccc(-c3cnc4cc(F)ccn34)c3c2C(=O)NC3)ccc1[C@@H]1CCOC1)C1COC1` [I-744, (S)-4-(7-fluoroimidazo [1,2-a]pyridin-3-yl)-7-((6-((methyl(oxe-tan-3-yl)amino)meth-yl)-5-(tetrahydrofuran-3-yl)pyridin-2-yl)amino)isoin-dolin-1-one], the pIC50 was more than 7.00.

As for `Cn1ccc2c(-c3ncc(Nc4ccc([C@H]5CCOC5)c(CN)n4)c4c3CNC4=O)ccnc21` [I-829, (R)-7-((6-(aminomethyl)-5-(THF-3-yl)pyridin-2-yl)amino)-4-(1-methyl-1H-pyrrolo[2,3-b]pyridin-4-yl)-2,3-dihydro-1H-pyrrolo[3,4-c]pyridin-1-one], the pIC50 is more than 7.00.

Turning to `Cc1ccn2c(-c3ccc(Nc4ccc(C5CCOC5)cn4)c4c3CNC4=O)cnc2c1` (centres unmarked) [I-155], the pIC50 is more than 7.00.

For the compound `Cc1ccn2c(-c3ccc(Nc4ccc(C(C)(C)C(=O)NCCN(C)C)cn4)c4c3CNC4=O)cnc2c1F` [I-456, N-[2-(dimethylami-no)ethyl]-2-[6-[[7-(8-fluoro-7-methyl-imidazo[1,2-a]pyridin-3-yl)-3-oxo-isoindolin-4-yl]amino]-3-pyridyl]-2-methyl-propanamide], the pIC50 is more than 7.00.

Consider `Cn1cnc2c(-c3ccc(Nc4ccc(N5CCNCC5)cn4)c4c3CNC4=O)cccc21` [I-122, 4-(1-methylbenzimidazol-4-yl)-7-[(5-piperazin-1-yl-2-pyridyl)amino] isoindolin-1-one], for which the pIC50 was more than 7.00.

For the compound `O=C1NCc2c(-c3cnc4cc(F)ccn34)ccc(Nc3ccc([C@H]4CCOC4)cn3)c21` [I-218, (R)-4-(7-fluoroimidazo [1,2-a]pyridin-3-yl)-7-((5-(tetrahydrofuran-3-yl)pyridin-2-yl)amino)isoin-dolin-1-one], the pIC50 was more than 7.00.

Regarding `O=C1NCc2c(-c3cnc4cc(F)ccn34)ccc(Nc3ccc([C@H]4CCOC4)c(CN4CCC4)n3)c21` [I-756, (R)-7-((6-(azetidin-1-ylmethyl)-5-(tetrahydrofuran-3-yl)pyridin-2-yl)amino)-4-(7-fluoroimidazo [1,2-a]pyridin-3-yl)isoindolin-1-one], the pIC50 was more than 7.00.

On to `O=C1NCc2c(-c3cnc4cnccn34)ccc(Nc3ccc(N4CCC[C@H](O)C4)cn3)c21` [I-169, 7-[[5-[(3S)-3-hydroxy-1-piperipyl]-2-pyridyl]amino]-4-imidazol[1,2-a]pyrazin-3-yl-isoindolin-1-one], for which the pIC50 is more than 7.00.

`O=C1NCc2c(-c3cnc4cc(F)ccn34)ccc(Nc3ccc([C@H]4CCOC4)c(CNCC(F)F)n3)c21` (single isomer, unassigned) [I-739]: the pIC50 was more than 7.00.

In the case of `COCCN(C)Cc1nc(Nc2ccc(-c3cnc4cc(F)ccn34)c3c2C(=O)NC3)ccc1C1CCOC1` (stereo in doubt) [I-727, (R)-4-(7-fluoroimidazo [1,2-a]pyridin-3-yl)-7-((6-(((2-methoxyethyl) (methyl)-amino)methyl)-5-(tetrahydrofuran-3-yl)pyridin-2-yl)amino)isoin-dolin-1-one], the pIC50 is more than 7.00.

As to `CNCc1nc(Nc2cnc(-c3ccnc4c3ccn4C)c3c2C(=O)NC3)ccc1[C@H]1CCOC1` (single isomer, unassigned) [I-814], the pIC50 is more than 7.00.

In the case of `O=C1NCc2c(-c3cnc4cc(F)ccn34)ccc(Nc3ccc(N4CC(O)CCC45CC5)cn3)c21` (centres unmarked) [I-395, 4-(7-fluoroimidazo [1,2-a]pyridin-3-yl)-7-((5-(6-hydroxy-4-azaspiro[2.5]octan-4-yl)pyridin-2-yl)amino)isoin-dolin-1-one], the pIC50 was more than 7.00.

With `COC[C@H]1CN(c2ccc(Nc3cnc(-c4ccnc5c4ccn5C)c4c3C(=O)NC4)nc2)CC[C@H]1O` [I-423, 7-((5-((3R,4R)-4-hydroxy-3-(methoxymeth-yl)piperidin-1-yl)pyridin-2-yl)amino)-4-(1-methyl-l H-4-pyrrolo[2,3-b]pyridin-4-yl)-2,3-dihydro-1H-pyrrolo[3,4-c]pyridin-1-one], the pIC50 is more than 7.00.

`C[C@@H]1C[C@H](O)CCN1c1ccc(Nc2ccc(-c3cnc4cnccn34)c3c2C(=O)NC3)nc1` [I-350, 7-((5-((2R,4R]-4-hydroxy-2-methylpiperidin-1-yl)pyridin-2-yl)amino)-4-(imidazo[1,2-a]pyrazin-3-yl)isoindolin-1-one]: the pIC50 was more than 7.00.

Consider `CN1CCOc2c(-c3ccc(Nc4ccc(N5CCNCC5)cn4)c4c3CNC4=O)ccnc21` [I-105, 4-(4-methyl-2,3-dihydropyrido [3,2-b][1.4]oxazin-8-yl)-7-[(5-piperazin-1-yl-2-pyridyl)amino] isoindolin-1-one], for which the pIC50 was more than 7.00.

Turning to `CC(C)(O)[C@@H]1CN(c2ccc(Nc3ccc(-c4cnc5cnccn45)c4c3C(=O)NC4)nc2)CCO1` [I-457, 7-[[5-[(2S)-2-(1-hydroxy-1-methyl-ethyl)morpholin-4-yl]-2-pyridyl]amino] 4-imidazo[1,2-a]pyrazin-3-yl-isoindolin-1-one], the negative logarithm of the IC50 (pIC50) is more than 7.00.

Turning to `CCNC(=O)C(C)(C)c1ccc(Nc2ccc(-c3ccnc4c3ccn4C)c3c2C(=O)NC3)nc1` [I-146, N-ethyl-2-methyl-2-[6-[[7-(1-methylpyrrolo [2,3-b]pyridin-4-yl)-3-oxo-isoindolin-4-yl]amino]-3-pyridyl]propan amide], the pIC50 is more than 7.00.

In the case of `C[C@H]1NC(=O)c2c(Nc3ccc(N4CCC(O)CC4)cn3)ccc(-c3cnc4ccccn34)c21` [I-317, (R)-7-((5-(4-hydroxy-piperidin-1-yl)pyridin-2-yl)amino)-4-(imidazo[1,2-a]pyridin-3-yl)-3-methylisoindo-lin-1-one], the pIC50 was more than 7.00.

As for `O=C1NCc2c(-c3cnc4cc(F)ccn34)ccc(Nc3ccc(N4CCO[C@H](C5(O)CC5)C4)cn3)c21` (single isomer, unassigned) [I-662], the pIC50 was more than 7.00.

Consider `COC1CCN(c2ccc(Nc3cnc(-c4cnc5c(F)cccn45)c4c3C(=O)NC4)nc2)CC1` [I-455, 4-(8-fluoroimidazo [1,2-a]pyridin-3-yl)-7-[[5-(4-methoxy-1-piperidyl)-2-pyridyl]amino]-2,3-dihydropyrrolo [3,4-c]pyridin-1-one], for which the pIC50 was 6.00 to 7.00.

On to `CCN(CC)Cc1nc(Nc2ccc(-c3cnc4cc(F)ccn34)c3c2C(=O)NC3)ccc1[C@H]1CCOC1` [I-510, (R)-7-((6-((diethylamino)-methyl)-5-(tetrahydrofuran-3-yl)pyridin-2-yl)amino)-4-(7-fluoroimidazo [1,2-a]pyridin-3-yl)isoindolin-1-one], for which the pIC50 was more than 7.00.

With `CN1CCN(c2ccc(Nc3ccc(-c4c[nH]c5ncccc45)c4c3C(=O)NC4)nc2)CC1` [I-21, 7-[[5-(4-methylpiperazin-1-yl)-2-pyridyl]amino]-4-(1H-pyrrolo[2,3-b]pyridin-3-yl)-isoindolin-1-one], the pIC50 is more than 7.00.

Take `C[C@@H]1COCCN1c1ccc(Nc2ccc(-c3cnc4cc(F)ccn34)c3c2C(=O)NC3)nc1CN(C)C` [I-528, 7-[[6-[(dimethylamino)-methyl]-5-[(3R)-3-methylmorpho-lin-4-yl J-2-pyridyl]amino]-4-(7-fluoroimidazo [1,2-a]pyridin-3-yl)isoindolin-1-one Formic acid salt]: the pIC50 is more than 7.00.

`CC(C)(O)[C@@H]1CCCN(c2ccc(Nc3ccc(-c4cnc5cnccn45)c4c3C(=O)NC4)nc2)C1` [I-311, (R)-7-((5-(3-(2-hydroxypropan-2-yl)piperidin-1-yl)pyridin-2-yl)amino)-4-(imidazo[1,2-a]pyrazin-3-yl)isoindolin-1-one]: the pIC50 was more than 7.00.

In the case of `O=C1NCc2c(-c3cnc4cc(F)ccn34)ccc(Nc3cccc(N4CC[C@@H]5CNC[C@@H]54)n3)c21` [I-498, 4-(7-fluoroimidazo [1,2-a]pyridin-3-yl)-7-((6-((3aR,6aR)-hexahydropy-rrolo[3,4-b]pyrrol-1(2H)-yl)pyridin-2-yl)amino)isoin-dolin-1-one], the pIC50 is more than 7.00.

With “(R)-7-((6- ((dimethylamino)- methyl)-5- (tetrahydrofuran- 3-yl)pyridin- 2-yl)amino)-4- (8-methylimidazo [1,2-a]pyridin- 3-yl)isoindolin- 1-one [I-696]”, the pIC50 is more than 7.00.

In the case of `Cc1ccc2c(-c3ccc(Nc4ccc(N5CCNCC5)cn4)c4c3CNC4=O)cnn2c1` [I-89, 4-(6-methylpyrazolo[1,5-a]pyridin-3-yl)-7-[(5-piperazin-1-yl-2-pyridyl)amino] isoindolin-1-one], the pIC50 is more than 7.00.

As for `O=C1NCc2c(-c3cnc4cc(F)ccn34)ccc(Nc3cccc(N4CC[C@H]5CNC[C@H]54)n3)c21` [I-497, 4-(7-fluoroimidazo [1,2-a]pyridin-3-yl)-7-((6-((3aS,6aS)-hexahydropy-rrolo[3,4-b]pyrrol-1(2H)-yl)pyridin-2-yl)amino)isoin-dolin-1-one], the pIC50 is more than 7.00.

Regarding `CN1CCN(c2ccc(Nc3ccc(-c4cccc5nccn45)c4c3C(=O)NC4)nc2)CC1` [I-25, 4-imidazo[1,2-a]pyridin-5-yl-7-[[5-(4-methylpiperazin-1-yl)-2-pyridyl]amino] isoindolin-1-one], the pIC50 was 6.00 to 7.00.

For `O=C1NCc2c(-c3cnc4cc(OCCO)ccn34)ccc(Nc3ccc(N4CCOCC4)cn3)c21` [I-201, 4-[7-(2-hydroxyeth-oxy)imidazo[1,2-a]pyridin-3-yl]-7-[(5-morpholino-2-pyridyl)amino] isoindolin-1-one], the pIC50 was more than 7.00.

On to `O=C1NCc2c(-c3cnc4cnccn34)ccc(Nc3cc(N4CCC(O)CC4)ccn3)c21` [I-324, 7-((4-(4-hydroxy-piperidin-1-yl)pyridin-2-yl)amino)-4-(imidazo[1,2-a]pyrazin-3-yl)isoindolin-1-one], for which the pIC50 was less than 6.00.

The record behind these values is US11021481B2, “Substituted isoindolin-1-ones and 2,3-dihydro-1h-pyrrolo[3,4-c]pyridin-1-ones as HPK1 antagonists” (Nimbus Saturn, Inc., priority 2019, dated 2021).
